The values that follow come from US20170121683A1, “ARYL HYDROCARBON RECEPTOR DISRUPTION AND ENHANCEMENT” (priority 2015, published 2017).

This data set has as its system AHR-target genes (CYP1A1 and CYP1B1) in H9 hESCs. The experiment in a line: qPCR of AHR downstream gene targets in undifferentiated hESCs. In kind it is cell-based, human. To be noted: 1 μM SR-1 or 10 nM TCDD for 96 hours, compared to DMSO controls. Here is the method: Undifferentiated H9 hESCs were treated with either DMSO (vehicle), 1 μM SR-1, or 10 nM TCDD for 96 hours in hESC growth media. Quantitative polymerase chain reaction analysis for AHR and two downstream effector gene targets (CYP1A1 and CYP1B1) are shown.
FIG. 8A. Non-adherent hematopoietic progenitor cells derived from hESCs were harvested at Day 6+3, Day 6+5, Day 6+7, and Day 6+9 time points and probed for gene expression by quantitative real-time PCR (qPCR). For each gene, Ct values were normalized to GAPDH at each time point and data is presented as relative fold-change as compared to undifferentiated hESCs. […] FIG. 8B Undifferentiated hESCs were cultured in the presence of 1 μM SR-1, 10 nM TCDD, or DMSO vehicle control for 96 hours and probed for gene expression by qPCR. For each gene, Ct values were normalized to GAPDH at each time point and data is presented as relative fold-change as compared to DMSO treated hESCs. n=3, error bars represent SEM, *p<0.05 assessed by two-way ANOVA+Tukey-Kramer multiple comparisons post-hoc test. FIG. 8C. Both adherent and non-adherent cell fractions treated with either DMSO, SR-1, or TCDD were harvested at Day 6+3, Day 6+6, and Day 6+9 and probed for viability with Sytox Blue Live/Dead Stain. Total percentage of viable cells for each group and time point are plotted. n=3.
H9 human embryonic stem cells (H9 hESCs; University of Wisconsin, Madison, Wis.) were adapted to passage as single cells using TrypLE (Invitrogen, Carlsbad, Calif.) as previously described (Ng et al. Nat. Protoc. 3, 768-76 (2008)). H9 hESCs were maintained on irradiated mouse embryonic fibroblasts in ES cell growth medium including Dulbecco's modified Eagle's medium (DMEM)/Ham's F-12 medium (F12) (Invitrogen) supplemented with 15% Knockout Serum Replacer (Invitrogen), 1 mM L-glutamine (Invitrogen), 0.1 mM β-mercaptoethanol (Sigma Aldrich, St. Louis, Mo.), 1% minimum essential medium nonessential amino acids (Invitrogen), 4 ng/mL basic fibroblast growth factor (R&D Systems Inc., Minneapolis, Minn.), and 1% penicillin-streptomycin (Invitrogen) incubated at 37° C. in a humidified atmosphere containing 5% CO2. Single-cell adapted hESCs were subjected to hemato-endothelial differentiation as spin embryoid bodies (“spin-EBs”), also previously described (Ng et al. Nat. Protoc. 3, 768-76 (2008); Knorr et al. Stem Cells Dev. 22, 1861-9 (2013); Ferrell et al., Stem Cells 33(4), 1130-41 (2015)). […]
(In general: In qPCR the cycle at which signal appears reflects the starting amount.)

On to `CC(C)n1cnc2c(NCCc3ccc(O)cc3)nc(-c3csc4ccccc34)nc21` [SR-1, StemReginin-1], for which the “expression of CYP1A1” value is given as “reduced expression” and the “expression of CYP1B1” value is listed as “reduced expression”.

On to `Clc1cc2c(cc1Cl)Oc1cc(Cl)c(Cl)cc1O2` [TCDD, 2,3,7,8-tetrachlorodibenzo-p-dioxin], for which the “expression of CYP1A1” value is given as “significantly increased expression” and the “expression of CYP1B1” value is recorded as “significantly increased expression”.
